According to patent EP1043319A1, “NOVEL ALKYLAMINO DERIVATIVES” (MITSUBISHI CHEMICAL CORPORATION, priority 1997, dated 1999):
Structures can show the parent of a compound that is named as a salt.

The compounds below were run against T1, Sigma 2 (Rattus norvegicus, UniProt Q5U3Y7) (assay: not given). Details: read-out: Sigma 2 Ki; [^3H]-DTG 1 nM, 500 nM pentazocine, crude P2 membrane fraction from rat livers, 50 mM Tris-HCl pH 7.4, 25°C, 2 hours.
T1 sequence (Q5U3Y7 1-176): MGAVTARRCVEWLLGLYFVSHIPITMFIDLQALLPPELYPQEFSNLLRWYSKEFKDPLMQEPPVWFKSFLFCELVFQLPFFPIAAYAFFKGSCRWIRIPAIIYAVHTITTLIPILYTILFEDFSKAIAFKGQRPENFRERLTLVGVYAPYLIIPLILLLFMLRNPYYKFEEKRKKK
Work on N=c1sc2cc(Cl)ccc2n1CC1CCN(C[C@H](O)c2ccc(F)cc2)CC1 (racemic) [Example 3, (R,S)-1-(4-Fluorophenyl)-2-[4-(6-chloro-2-iminobenzothiazolin-3-ylmethyl)-piperidin-1-yl]ethanol dihydrochloride] yielded a Ki of 0.035 µM.

What follows are compounds tested against T1, Sigma 2 (assay: biochemical). Details: not given.
N=c1sc2cc(Cl)ccc2n1CC1CCN(CC(O)C23CC4CC(CC(C4)C2)C3)CC1 (racemic) [Example 1, (R,S)-1-(1-Adamantyl)-2-[4-(6-chloro-2-iminobenzothiazolin-3-ylmethyl)piperidin-1-yl] ethanol dihydrochloride] showed a Ki of 0.0087 µM. In the case of CN=c1sc2cc(Cl)ccc2n1CC1CCN(CC(O)c2ccc(F)cc2)CC1 (racemic) [Example 5, (R,S)-1-(4-Fluorophenyl)-2-[4-(6-chloro-2-methyliminobenzothiazolin-3-yl-methyl)piperidin-1-yl]ethanol dihydrochloride], the Ki is reported as 0.0072 µM. N=c1sc2cc(Cl)ccc2n1CC1CCN(CC(O)c2ccc(F)c(F)c2)CC1 (racemic) [Example 6, (R,S)-1-(3,4-Difluorophenyl)-2-[4-(6-chloro-2-iminobenzothiazolin-3-yl-methyl)piperidin-1-yl]ethanol dihydrochloride] was tested, and the Ki was 0.025 µM. For N=c1sc2cc(Cl)ccc2n1CC1CCN(CC(O)c2cccc(F)c2)CC1 (racemic) [Example 11, (R,S)-1-(3-Fluorophenyl)-2-[4-(6-chloro-2-iminobenzothiazolin-3-yl-methyl)piperidin-1-yl]ethanol dihydrochloride], the Ki was 0.036 µM. With CN=c1sc2cc(Cl)ccc2n1CC1CCN(CC(O)c2ccc(F)cc2F)CC1 (racemic) [Example 22, (R,S)-1-(2,4-Difluorophenyl)-2-[4-(6-chloro-2-methyliminobenzothiazolin-3-ylmethyl)piperidin-1-yl]ethanol dihydrochloride] the Ki was 0.0094 µM. In the case of CN=c1sc2cc(Cl)ccc2n1CCCCN(C)CC(O)c1ccc(F)cc1 (racemic) [Example 30, (R,S)-1-(4-Fluorophenyl)-2-[[N-[4-(6-chloro-2-methyliminobenzothiazolin-3-yl)butyl]-N-methyl]amino]ethanol dihydrochloride], the Ki is reported as 0.025 µM. O=c1sc2cc(Br)ccc2n1CC1CCN(CC(O)c2ccc(F)cc2)CC1 (racemic) [Example 32, (R,S)-1-(4-Fluorophenyl)-2-[4-(6-bromo-2-oxobenzothiazolin-3-ylmethyl)-piperidin-1-yl]ethanol hydrochloride] showed a Ki of 0.004 µM. For O=c1sc2ccc(Cl)cc2n1CC1CCN(CC(O)c2ccc(F)cc2)CC1 (racemic) [Example 40, (R,S)-1-(4-Fluorophenyl)-2-[4-(5-chloro-2-oxobenzothiazolin-3-ylmethyl)piperidin-1-yl]ethanol hydrochloride], the Ki was 0.0047 µM. N=c1sc2cc(Cl)ccc2n1CC1CCN(CC(=O)c2ccc(F)cc2)CC1 [Example 2, 3-[[1-[2-(4-Fluorophenyl)-2-oxoethyl]-4-piperidinyl]methyl]-6-chloro-2-iminobenzothiazoline dihydrochloride] showed a Ki of 0.007 µM. Compound CN=c1sc2cc(Cl)ccc2n1CC1CCN(CC(=O)c2ccc(F)cc2)CC1 [Example 4, 3-[[1-[2-(-Fluorophenyl)-2-oxoethyl]-4-piperidinyl]methyl]-6-chloro-2-methyliminobenzothiazoline dihydrochloride] has a Ki of 0.004 µM. CC(=O)N=c1sc2cc(Cl)ccc2n1CC1CCN(CC(=O)c2ccc(F)cc2)CC1 [Example 9, 3-[[1-[2-(4-Fluorophenyl)-2-oxoethyl]-4-piperidinyl]methyl]-6-chloro-2-acetyliminobenzothiazoline hydrochloride] showed a Ki of 0.0093 µM. Work on N=c1sc2ccccc2n1CC1CCN(CC(=O)c2ccc(F)cc2)CC1 [Example 15, 3-[[1-[2-(4-Fluorophenyl)-2-oxoethyl]-4-piperidinyl]methyl]-2-iminobenzothiazoline dihydrochloride] yielded a Ki of 0.028 µM. Cc1ccc2c(c1)sc(=N)n2CC1CCN(CC(=O)c2ccc(F)cc2)CC1 [Example 18, 3-[[1-[2-(4-Fluorophenyl)-2-oxoethyl]-4-piperidinyl]methyl]-6-methyl-2-iminobenzothiazoline dihydrochloride] was tested, and the Ki was 0.023 µM. In the case of N=c1sc2cc(F)ccc2n1CC1CCN(CC(=O)c2ccc(F)cc2)CC1 [Example 19, 3-[[1-[2-(4-Fluorophenyl)-2-oxoethyl]-4-piperidinyl]methyl]-6-fluoro-2-iminobenzothiazoline dihydrochloride], the Ki is reported as 0.021 µM. CN=c1sc2cc(Cl)ccc2n1CC1CCN(CC(=O)c2ccc(S(N)(=O)=O)cc2)CC1 [Example 21, 3-[[1-[2-(4-Aminosulfonylphenyl)-2-oxoethyl]-4-piperidinyl]methyl]-6-chloro-2-methyliminobenzothiazoline dihydrochloride] was tested, and the Ki was 0.017 µM. With N=c1sc2cc(C(F)(F)F)ccc2n1CC1CCN(CC(=O)c2ccc(F)cc2)CC1 [Example 23, 3-[[1-[2-(4-Fluorophenyl)-2-oxoethyl]-4-piperidinyl]methyl]-2-imino-6-trifluoromethylbenzothiazoline dihydrochloride] the Ki was 0.0073 µM. CN=c1sc2cc(Cl)ccc2n1CC1CCN(C[C@H](O)c2ccc(F)cc2)CC1 [Example 27, (R)-1-(4-Fluorophenyl)-2-[4-(6-chloro-2-methyliminobenzothiazolin-3-yl-methyl)piperidin-1-yl]ethanol dihydrochloride] gave a Ki of 0.017 µM. For CN=c1sc2cc(Cl)ccc2n1CC1CCN(C[C@@H](O)c2ccc(F)cc2)CC1 [Example 28, (S)-1-(4-Fluorophenyl)-2-[4-(6-chloro-2-methyliminobenzothiazolin-3-yl-methyl)piperidine-1-yl]ethanol dihydrochloride], the Ki was 0.019 µM. O=C(CN1CCC(Cn2c(=O)sc3cc(Br)ccc32)CC1)c1ccc(F)cc1 [Example 31, 3-[[1-[2-(4-Fluorophenyl)-2-oxoethyl]-4-piperidinyl]methyl]-6-bromo-2-oxobenzothiazoline hydrochloride] was tested, and the Ki was 0.0063 µM. O=C(CN1CCC(Cn2c(=O)sc3cc(Cl)ccc32)CC1)c1ccc(F)cc1 [Example 33, 3-[[1-[2-(4-Fluorophenyl)-2-oxoethyl]-4-piperidinyl]methyl]-6-chloro-2-oxobenzothiazoline hydrochloride] gave a Ki of 0.0045 µM. Work on O=C(CN1CCC(Cn2c(=O)sc3cc([N+](=O)[O-])ccc32)CC1)c1ccc(F)cc1 [Example 35, 3-[[1-[2-(4-Fluorophenyl)-2-oxoethyl]-4-piperidinyl]methyl]-6-nitro-2-oxobenzothiazoline hydrochloride] yielded a Ki of 0.013 µM. O=c1sc2cc([N+](=O)[O-])ccc2n1CC1CCN(CC(O)c2ccc(F)cc2)CC1 (stereo not drawn) [Example 36, 1-(4-Fluorophenyl)-2-[4-(6-nitro-2-oxobenzothiazolin-3-ylmethyl)piperidin-1-yl]ethanol hydrochloride] was tested, and the Ki was 0.031 µM. O=C(CN1CCC(Cn2c(=O)sc3ccc(Cl)cc32)CC1)c1ccc(F)cc1 [Example 39, 3-[[1-[2-(4-Fluorophenyl)-2-oxoethyl]-4-piperidinyl]methyl]-5-chloro-2-oxobenzothiazoline hydrochloride] was tested, and the Ki was 0.0031 µM.
